{
  "source": "patent US11932870B2",
  "about": "“Compositions and methods for immune cell modulation in adoptive immunotherapies” (Fate Therapeutics, Inc., priority 2016, dated 2024)",
  "assay_type_in_all_cases": "cell-based, human",
  "key": {"[1]": {"system": "CAR-T cells co-cultured with irradiated K562 tumor cells that express CD19", "test": "In vitro serial killing/re-stimulation assay", "settings": "relative to vehicle", "text": "An informative clinical parameter that can in some contexts be indicative of likelihood of successful adoptive cell therapy in clinical trials is the ability and extent of expansion of the transferred cells in the patient post-treatment and/or persistence and continued function following initial expansion, e.g., in the context of continued exposure to antigen. The ability of engineered T cells to persist and continue expanding over multiple rounds of antigen stimulation can be indicative of such features and/or likelihood of in vivo function or clinical response. An in vitro serial killing/re-stimulation assay, where the T cells treated by each compound were evaluated for various functions, including expansion and ability to kill tumor cells expressing the target antigen in vitro over multiple rounds of exposure to and withdrawal from antigen, was used as a model system. Such assays were carried out on cells treated with or without compounds, to assess the impact of individual compounds on cell function after repeated encounter with antigen, and cell expansion or persistence in such contexts.\nCD8 T cells were activated, transduced, and expanded in the presence of DMSO, TWS119, or DCC-2036. At the end of the expansion, the CAR-T cells were cryopreserved. The serial re-stimulation assay was performed by thawing the CAR-T cells and co-culturing with irradiated K562 tumor cells that express CD19, the antigen recognized by the CAR. Prior to starting each round of killing, cell numbers were adjusted so that CAR-T cell numbers were substantially the same from the cultures generated with DMSO, TWS119, and DCC-2036 treatment respectively. An equal number of irradiated CD19-expressing K562 target cells were added to the different CAR-T cultures."}, "CD8+ T cells": {"system": "CD8+ T cells", "test": "RNA-Seq gene expression of memory T cell genes", "settings": "DCC-2036 1 μM, TWS-119 10 μM, roughly 6 days, 5 donors, relative to vehicle, FIG. 5", "text": "To characterize the impact of DCC-2036 in memory cell skewing, gene expression changes for a panel of key genes, (i.e. CCR7, CD62L, etc.) previously known to be highly expressed in memory T cells were investigated. Cryopreserved CD8+ T cells from 5 different donors were thawed and washed into X-Vivo 15 with 5% human AB serum, IL-2, pen/strep, and additional supplements. Cells were dispensed into flat-bottom 384-well plates at 5×10^5 cells/ml with anti-CD3/anti-CD28 beads. Cells were either treated with DCC-2036 at a final concentration of 1 μM, TWS-119 at 10 μM, or received a vehicle (DMSO) only control treatment. Cells were incubated for roughly 6 days at 37 degrees Celsius with 5% CO2.\nPost incubation, cells were lysed and RNA was isolated, fragmented and cDNA was generated in the presence of the appropriate sequencing adapters and sequencing was performed using Illumina next generation sequencing technology (NGS). RNA-Sequencing (RNA-Seq) utilizes the capabilities of NGS to not only acquire nucleotide sequence information, but also provide quantitative gene expression measurements from a given samples transcriptome. Gene transcripts were normalized to counts per million (CPM) reads per samples and relative quantitation of each gene transcript was determined for each in treatment relative to the matching vehicle control treated samples. […]"}, "viable CD4+ population": {"system": "viable CD4+ population", "test": "T cell compound screen: CCR7+CD62L+ cells in the viable CD4+ population (flow cytometry)", "settings": "10 μM, about 6 days, anti-CD3/anti-CD28 beads; hit = Z-score > +2 for percent or absolute number CCR7+CD62L+ in CD4+", "text": "In Vitro T Cell Culture. Fresh leukopaks (AllCells, Alameda, CA) were obtained from healthy donors, from which T cells were negatively selected using the EasySep Human T cell Enrichment Kit (Stem Cell Technologies, Vancouver, Canada). The freshly isolated T cells were aliquoted and cryopreserved. On the day the screens were initiated, T cells were thawed and washed into X-Vivo 15 with 5% human AB serum, IL-2, pen/strep, and additional supplements. Cells were dispensed into flat-bottom 384-well plates at 5×10^5 cells/ml with anti-CD3/anti-CD28 beads. Individual compounds were added at a final concentration of 10 μM to each well from column 3 to column 22 of each plate. Positive and negative controls were added to additional wells. Cells were incubated for about 6 days at 37 degrees with 5% CO2.\nFlow Cytometry. On Day 6 of culture, cells were stained with a fixable viability marker and fluorophore-conjugated antibodies: CD3, CD4, CD8, CD45RA, CD45RO, CD62L, CCR7, CD27, and CD122 (BD Biosciences, San Jose, CA; and BioLegend, San Diego, CA). Fluorescent absolute counting beads (Spherotech, Lake Forest, IL) were added just prior to acquisition. Data acquisition was performed on a BD Fortessa X-20 (BD Biosciences) and data were analyzed using Treestar software (FlowJo, Ashland, OR) and Spotfire (Tibco, Boston, MA).\nThese cells are characterized by expression of CCR7 and CD62L. Therefore, cells co-expressing both of these identifying markers were evaluated. Within the viable CD4+ population and viable CD8+ population, the percent of cells co-expressing CCR7 and CD62L was determined. The expression of either CD62L or CCR7 on T cells, as indicative of the desired T cell subsets, have been described as having favorable functional characteristics for CAR-T cell therapy, and potentially other adoptive T cell therapies.\nThe number of events in each of these gates relative to the number of absolute counting beads in each sample was calculated, defining a measure of the absolute number of naïve, stem cell memory, or central memory T cells within the CD4+ and/or CD8+ populations. A z-Score relative to the screened compound samples within each 384-well plate was calculated for each of these four values: 1) percent CCR7+CD62L+in CD4+, 2) percent CCR7+CD62L+in CD8+, 3) absolute relative number of CCR7+CD62L+in CD4+, and 4) absolute number of CCR7+CD62L+in CD8+(FIGS. 1A and 1i). Z-scores were also calculated for the percent viability of all cells within each sample and the relative absolute number of cells within each sample. A “Z-Score” is a statistical measurement of a score's relationship to the mean in a group of scores. AZ-score of 0 means the score is the same as the mean. AZ-score can also be positive or negative, indicating whether it is above or below the mean and by how many standard deviations."}},
  "note": "Entries after “also recorded” stand apart in the source; their conditions may differ.",
  "data": [
    {"smiles": "CNC(=O)c1cc(Oc2ccc(NC(=O)Nc3cc(C(C)(C)C)nn3-c3ccc4ncccc4c3)c(F)c2)ccn1", "note": "[DCC-2036, Rebastinib]", "values": [
      {"measurement": "cell number expansion of CAR-T cells in rounds 3 and 4 of the serial re-stimulation assay", "setting": "[1]; FIG. 3C", "value": "much higher than the vehicle control"},
      {"measurement": "total expansion in CAR-T cell number through all 4 rounds of the serial re-stimulation assay", "setting": "[1]; FIG. 3D", "value": "much greater expansion relative to the vehicle control; also recorded: improves cell expansion"},
      {"measurement": "expression of key memory T cell genes (CCR7, CD62L etc.)", "setting": "CD8+ T cells", "value": "increases in expression at levels similar to or greater than TWS-119"},
      {"measurement": "expression of key memory T cell genes (CCR7, CD62L etc.)", "setting": "CD8+ T cells; listed as DCC-2036 (FT-61314)", "value": "increased expression"},
      {"measurement": "CD4 Hit", "setting": "viable CD4+ population", "value": "CD4"}
    ]}
  ]
}
